The values that follow come from patent US20250101052A1, “COMPOUND FOR EGFR KINASE INHIBITOR, COMPOSITION, AND USE THEREOF” (INNOVATION INSTITUTE FOR ARTIFICIAL INTELLIGENCE IN …, priority 2021, published 2025).

One assay deals with BaF3-EGFR^WT cells. The experiment in a line: BaF3 cell proliferation inhibition experiment (CCK-8). It is filed as cell-based. The settings on record: Mus musculus, read-out: BaF3-EGFR^WT (IC50 nM). How it is done: (§1) A. Cell line: BaF3 cells with stable overexpression of wild-type genes are named BaF3-EGFR^WT, and BaF3 cells with stable overexpression of EGFR^L858R/T790M/C797S EGFR^del19/T790M/C797S EGFR^L858R/C797S and EGFR^del19/C797S mutant genes are named BaF3-EGFR^L858R/T790M/C797S BaF3-EGFR^del19/T790M/C797S BaF3-EGFR^L858R/C797S and BaF3-EGFR^del19/C797S cells, respectively. Mediums:
(§2) a) The medium was preheated in a 37° C. water bath.
(§3) b) The cryopreservation tube was taken from the liquid nitrogen tank, quickly placed in a 37° C. water bath, and melted completely within 1 minute.
(§4) c) The cell suspension was transferred to a 15 mL centrifuge tube containing a 10 mL medium and centrifuged at 1000 rpm for 4 minutes.
(§5) d) The supernatant was discarded, the cells were resuspended in a 1 mL medium and transferred to a […] culture dish containing a 10 mL medium, 20% serum and 50 ng/mL EGF were administered to the first-generation medium, and culture was conducted in a 37° C. and 5% CO2 incubator.
(§6) b) The cells in the culture dish were blown evenly with a 5 mL pipette, and 500 μL of the cells were pipetted out to be inoculated into a new […] culture dish and cultured in a 37° C. and 5% CO2 incubator.
(§7) a) The compound to be tested (10 mM stock solution) was diluted with 100% DMSO to 1 mM, and diluted with a culture solution in a 24-well plate to prepare of a working solution of 2 μM concentration.
(§8) b) The 2 μM working solution was diluted with a triple dilution method to obtain working solutions with approximate concentrations of 2 μM, 600 nM, 200 nM, 60 nM, and 20 nM.
(§9) a) The cells at the logarithmic growth phase were centrifuged at 1000 rpm for 4 minutes, resuspended with a medium (containing 10% serum and 50 ng/mL EGF), and counted.
(§10) b) The cells were inoculated into a 96-well plate with a cell density of 4000 cells/well, and placed in a 37° C. and 5% CO2 incubator for culture for 12 hours.
(§11) a) The prepared compound was added to a 96-well plate, with 100 μL per well. The final concentrations were 1 μM, 300 nM, 100 nM, 30 nM, 10 nM, and 0 nM, and the final concentration of DMSO was 0.2%. A medium served as a blank control.
(§12) b) The cells were placed in 37° C. and 5% CO2 incubator for culture for 72 hours.
(§13) (5) Cell Viability Testing
(§14) a) The 96-well cell culture plate was taken out, and 20 μL of a CCK-8 reagent (Cell Counting Kit-8, Topscience, Catalog No. C0005) was added in the dark.
(§15) b) Mixing well was conducted on a horizontal shaking table at a room temperature at 100 rpm for 5 minutes.
(§16) c) The culture plate was placed in a 37° C. constant-temperature incubator for incubation.
(§17) The data was analyzed using GraphPad Prism 8.0 software to obtain a fitted curve of activity of the compounds. The IC50 of the compounds was fitted from nonlinear regression equation.

The test system of assay [1] is BaF3-EGFR^del19/T790M/C797S cells. The description is as above. To be noted: Ba/F3 EGFR-Del19/T790M/C797S, read-out: BaF3-EGFR^del19 /T790M/C797S (IC50 nM). It is filed as cell-based. Here is the method:
as §1, §2, §3, §4, §5, §6, §7, §8, §9, §10, §11, §12, §13, §14, §15, §16, §17

The test system of assay [2] is BaF3-EGFR^L858R/C797S cells. The assay is described as above. It is filed as cell-based. The settings on record: Ba/F3 EGFR-L858R, read-out: BaF3-EGFR^L858R/C797S (IC50 nM). How it is done: as §1, §2, §3, §4, §5, §6, §7, §8, §9, §10, §11, §12, §13, §14, §15, §16, §17
For assay [3], the system named is BaF3-EGFR^del19/C797S cells. Described as above. The settings on record: Mus musculus, read-out: BaF3-EGFR^del19 /C797S (IC50 nM). It is filed as cell-based. Here is the method: as §1, §2, §3, §4, §5, §6, §7, §8, §9, §10, §11, §12, §13, §14, §15, §16, §17
For assay [4], the target named is EGFR^L858R/T790M/C797S kinase (Homo sapiens (Human), UniProt P00533, C797S/L858R/T790M). The assay can be described thus: EGFR^L858R/T790M/C797S kinase inhibitory activity experiment. The settings on record: in vitro. It is filed as biochemical. A digest of the protocol: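 Human EGFR L858R/T790M/C797S mutant preincubated 10 min with compound (10-point dilution from 1 μM), then reacted 60 min at room temperature with ATP and kinase substrate 22. Substrate conversion read by Caliper mobility shift. % inhibition normalized to no-enzyme and no-compound wells, with IC50 from variable-slope log(inhibitor) fit.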
Sequence of EGFR^L858R/T790M/C797S kinase (P00533 25-1210 T790M/C797S/L858R): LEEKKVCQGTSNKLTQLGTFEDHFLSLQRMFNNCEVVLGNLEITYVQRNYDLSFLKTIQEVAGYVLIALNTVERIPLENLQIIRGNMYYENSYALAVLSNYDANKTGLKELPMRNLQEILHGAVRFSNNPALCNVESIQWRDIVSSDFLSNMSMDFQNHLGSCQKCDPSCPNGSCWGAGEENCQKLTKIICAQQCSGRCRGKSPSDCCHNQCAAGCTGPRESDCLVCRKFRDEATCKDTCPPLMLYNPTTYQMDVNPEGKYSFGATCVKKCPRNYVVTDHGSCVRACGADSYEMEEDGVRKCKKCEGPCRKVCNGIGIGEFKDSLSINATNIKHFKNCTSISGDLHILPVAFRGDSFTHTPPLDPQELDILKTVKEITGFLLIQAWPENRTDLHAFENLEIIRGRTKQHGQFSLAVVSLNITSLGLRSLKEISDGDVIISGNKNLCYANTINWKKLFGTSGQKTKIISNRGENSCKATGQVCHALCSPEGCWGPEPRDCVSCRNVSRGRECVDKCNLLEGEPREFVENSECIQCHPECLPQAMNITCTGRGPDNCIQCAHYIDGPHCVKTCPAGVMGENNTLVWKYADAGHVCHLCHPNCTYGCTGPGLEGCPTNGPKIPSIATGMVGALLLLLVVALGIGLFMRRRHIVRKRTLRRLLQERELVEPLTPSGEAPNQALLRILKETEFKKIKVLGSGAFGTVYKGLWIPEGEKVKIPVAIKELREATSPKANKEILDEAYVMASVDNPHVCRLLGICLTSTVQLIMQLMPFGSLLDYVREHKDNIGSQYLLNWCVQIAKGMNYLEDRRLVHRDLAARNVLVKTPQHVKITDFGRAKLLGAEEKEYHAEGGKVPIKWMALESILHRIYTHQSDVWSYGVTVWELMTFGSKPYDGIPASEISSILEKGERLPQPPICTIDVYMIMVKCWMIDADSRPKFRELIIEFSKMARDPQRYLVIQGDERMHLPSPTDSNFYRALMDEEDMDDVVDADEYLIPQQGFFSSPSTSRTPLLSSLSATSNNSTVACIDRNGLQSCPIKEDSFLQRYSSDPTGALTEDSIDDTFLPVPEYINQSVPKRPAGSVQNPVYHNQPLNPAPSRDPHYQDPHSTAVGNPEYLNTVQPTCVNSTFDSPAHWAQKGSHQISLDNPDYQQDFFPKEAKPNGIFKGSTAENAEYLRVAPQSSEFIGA

The subject of a further assay is A431 cells. The experiment in a line: A431 cell proliferation inhibition (SRB). It is filed as cell-based. To be noted: Homo sapiens, A-431, wild-type EGFR, 72 hours. Here is the method: A431 cell proliferation inhibition: The compounds of the present invention have good selectivity to wild-type EGFR
as §2, §3, §4, §5, §6, §7, §8, §9, §10, §11, §12, §13
a) The cell supernatant was discarded, rinsed once with 1×PBS, and fixed with 10% trichloroacetic acid for 1 hour. The trichloroacetic acid was discarded, excess trichloroacetic acid was washed off with tap water, and the 96-well plate was dried in a 60° C. oven.
b) 70 μL of an SRB stain was added to each well of the dry 96-well plate for staining at a room temperature for 30 minutes. Excess SRB stain was washed off with 1% glacial acetic acid, and the 96-well plate was dried in a 60° C. oven.
c) SRB was dissolved with 100 μL of 10 mM Tris-base solution. The absorbance was detected at 540 nm ultraviolet absorption using the microplate reader. The data was analyzed.
as §17

The subject of assay [5] is BaF3-EGFR^L858R/T790M/C797S cells. The experiment in a line: BaF3 cell proliferation inhibition experiment (CCK-8). It is filed as cell-based. The settings on record: Ba/F3 EGFR-L858R, 72 hours.
Source text: BaF3 cell proliferation inhibition experiment: The compounds of the present invention have excellent inhibitory activity against the proliferation of BaF3-EGFR^L858R/T790M/C797S cells
as §1, §2, §3, §4, §5, §6, §7, §8, §9, §10, §11, §12, §13, §14, §15, §16
d) Starting from the addition of the CCK-8, the absorbance at 450 nm was read using the TECAN microplate reader at 1 hour, 2 hours, and 3 hours, respectively.
as §17

Setting [6] is: BaF3, cell proliferation, 72 hours.

SMILES strings stand for the structures. Where two headings read alike, the source gives them in different places.

Take `C=CC(=O)Nc1cc(Nc2nccc(-c3cn(C)c4ccccc34)n2)c(OC)cc1N(C)CCN(C)C` [AZD9291, reference compound]: the IC50 in the assay with BaF3-EGFR^WT cells (BaF3, 72 h) is 76.1 nM; in assay [1] (72 h), 614 nM; in assay [2] (72 h) it was above 1000 nM; in assay [3] (BaF3, 72 h), above 1000 nM.

In the case of `CCc1cc(Nc2ncc(Cl)c(Nc3ccc(C)c(C)c3P(C)(C)=O)n2)c(OC)cc1N1CCC(N2CC3CC2CN3C)CC1` (stereo not drawn) [Compound 54, (6-((5-Chloro-2-((5-ethyl-2-methoxy-4-(4-(5-methyl-2,5-diazadicyclo[2.2.1]heptane-2-yl)piperidin-1-yl)phenyl)amino)pyrimidin-4-yl)amino)-2,3-dimethylphenyl)dimethylphosphine oxide], the IC50 is 166 nM in assay [2] (cell proliferation, 72 hours); 193 nM in assay [3] (setting [6]); 0.201 nM in assay [4].

In the case of `CCc1cc(Nc2ncc(Cl)c(Nc3ccc(C)c(C)c3P(C)(C)=O)n2)c(OC)cc1N1CCC2(CC1)CC(N1CCCC1)C2` [Compound 48, (6-((5-chloro-2-((5-ethyl-2-methoxy-4-(2-(pyrrolidin-1-yl)-7-azaspiro[3.5]nonan-7-yl)phenyl)amino)pyrimidin-4-yl)amino)-2,3-dimethylphenyl)dimethylphosphine oxide], the IC50 in the assay on BaF3-EGFR^WT cells (setting [6]) came out at 634 nM; in assay [1] (cell proliferation, 72 hours), 176 nM; in assay [4], 0.0629 nM.

`CCc1cc(Nc2ncc(Cl)c(Nc3ccc(C)c(C)c3P(C)(C)=O)n2)c(OC)cc1N1CCC(N2C[C@H]3CN(C)C[C@H]3C2)CC1` [Compound 52, (6-((5-Chloro-2-((5-ethyl-2-methoxy-4-(4-((3aR,6aS)-5-methyloctahydropyrrol[3,4-C]pyrrol-2(1H)-yl)piperidin-1-yl)phenyl)amino)pyrimidin-4-yl)amino)-2,3-dimethylphenyl)dimethylphosphine oxide]: the IC50 with A431 cells came to 606 nM; in assay [5], 236 nM; in the assay on BaF3-EGFR^WT cells (setting [6]), 353 nM; in assay [1] (cell proliferation, 72 hours) it was 92.8 nM; in assay [4], 0.0369 nM.
